# Assay results reported in paper PMC7774954, “Interactomic affinity profiling by holdup assay: Acetylation and distal residues impact the PDZome-binding specificity of PTEN phosphatase” (PLoS ONE, 2020).
# *1 amine or outer side, *2 acyl side, *3 side chain or, on linkers, in order; H or OH if unused. Where a SMILES comes first, the peptide text is derived from it. The star is where a group is joined. X1 = O=C(CCCC[C@@H]1SC[C@@H]2NC(=O)N[C@@H]21)NCCCOCCOCCOCCCN*; Suc = O=C(CCC(=O)[*:2])[*:1]
# Test system: 266 human PDZ domains (PDZome)
# Experiment: Holdup assay (chromatographic retention, PDZome-binding profile, BI)
# Set-up: key to maximal BI / Max BI / BI: binding intensity: 0.00 = no binding, 1.00 = maximal binding; Log(Kd): unit not given here
# Description: The holdup method is a chromatographic approach in solution developed in our group that allows to measure the binding strength of a peptide, attached to a resin, against a library of domains of a same family. We initially proposed this method to explore the interaction between PBM peptides and the human PDZ domains. Briefly, a soluble cell lysate containing individually overexpressed PDZ domain is incubated until equilibrium with a calibrated amount of streptavidin-resin saturated either with the target biotinylated PBM peptide or with biotin as a reference. The flow-throughs containing the unbound protein fraction are recovered by filtration and loaded on a capillary electrophoresis instrument to quantify the amount of remaining free PDZ. The stronger the steady-state depletion of the PDZ domain in the flow-through as compared to the reference, the stronger the PDZ/PBM binding interaction. The assay is particularly suited to quantitatively evaluate and compare large numbers of interactions. This method delivers, for each PBM/PDZ pair, a "binding intensity" (BI), whose value can in principle range from 0.00 (no binding event detected) to 1.00 (maximal binding event). The approach has been automated and the human PDZ library was recently extended to the complete 266 PDZ domains known in human proteome. […] The high accuracy and efficiency of the holdup assay have been validated previously. Very recently, a manual version of the holdup assay with purified samples and using widespread benchtop equipment has been implemented and has proven to be reliable.
# The 266 PDZ domains that constitute the PDZ library (“PDZome V.2”) used in the present work were produced using constructs with optimized boundaries as described previously. All the genes were fused to Maltose-Binding Protein (MBP) or Thioredoxin (THR) tag often used to facilitate the solubilisation of the over-expressed protein, by cloning them into the pETG41A or pETG20A plasmid, respectively. […] The expressed tag-PDZ concentrations were quantified using capillary gel electrophoresis and cell lysates were diluted to reach approximately 5 μM tag-PDZ before freezing in 96-well plates. A detailed protocol of the PDZ library production, expression and benchmarking can be found in [32]. PDZ domains are named according to their originating protein name followed by the PDZ number (e.g. NHERF1-1 as the first PDZ domain of the NHERF1 protein).
# The holdup assay was performed on a Tecan freedom Evo200 robot with 384-well plates in singlicate for the three 11-mer PTEN variants and the 13-mer PTEN peptide as described in [31, 32]. Briefly, prior to interaction assay, 2.5 μL of streptavidin resin was saturated in each well with 20 μL of biotinylated PBM peptides (42 μM) and then washed twice with an excess of free biotin, while the reference resin was incubated only with biotin. Right before the holdup experiment, the PDZ library was spiked with an internal standard of lysozyme. Then, the biotin- or PBM-saturated resin was incubated, each in a distinct well of a 384-well plate, with complete cell lysates diluted so that the concentration of the tag-PDZ present in the crude extract is adjusted at 4 μM. After a sufficient time to reach complex equilibrium (15 min.), a fast and mild filtration step is performed and the tag-PDZ concentrations were measured by capillary electrophoresis instrument (LabChip GXII, PerkinElmer, Massachusets, USA). Standard markers were used to convert migration time into molecular weight on the LabChip software and inappropriate molecular weight markers were corrected or excluded.
# Holdup data quality check and processing […]
# [1] = PDZ domain PARD3-1, first of two lines so named (r186)
smiles,measurement,setting,value
CC[C@H](C)[C@H](NC(=O)[C@H](CCC(N)=O)NC(=O)[C@@H](NC(=O)[C@H](Cc1c[nH]cn1)NC(=O)[C@H](CCC(N)=O)NC(=O)[C@H](CC(=O)O)NC(=O)[C@H](CCC(=O)O)NC(=O)[C@H](CC(=O)O)NC(=O)[C@H](Cc1ccccc1)NC(=O)[C@@H]1CCCN1C(=O)CCC(=O)NCCCOCCOCCOCCCNC(=O)CCCC[C@@H]1SC[C@@H]2NC(=O)N[C@@H]21)[C@@H](C)O)C(=O)N[C@H](C(=O)N[C@@H](CCCCN)C(=O)N[C@H](C(=O)O)C(C)C)[C@@H](C)O [PTEN_13] ({X1-Suc}-PFDEDQHTQITKV-OH),number of additional new PDZ partners not detected for PTEN_11,"BI>0.20, compared with PTEN_11",24
same,BI,PDZ domain MPDZ-2,0.095
same,BI,PDZ domain MPDZ-3,0.139
same,BI,PDZ domain MPDZ-4,0.035
same,BI,PDZ domain MPDZ-5,-0.002
same,BI,PDZ domain MPDZ-6,-0.029
same,BI,PDZ domain MPDZ-7,0.23
same,BI,PDZ domain MPDZ-8,0.039
same,BI,"PDZ domain MPDZ-9 (gene NHERF2, 2)",-0.021
same,BI,PDZ domain MPDZ-12,0.024
same,BI,PDZ domain MPDZ-13,0.225
same,BI,PDZ domain MPP1-1,-0.074
same,BI,PDZ domain MPP2-1,-0.014
same,BI,PDZ domain MPP3-1,-0.03
same,BI,PDZ domain MPP4-1,0
same,BI,PDZ domain MPP5-1,0.002
same,BI,PDZ domain MPP6-1,-0.068
same,BI,PDZ domain MPP7-1,-0.02
same,BI,PDZ domain NHERF1-2,0.132
same,BI,PDZ domain NHERF3-1,0.161
same,BI,PDZ domain NHERF3-2,0.06
same,BI,PDZ domain NHERF3-3,0.068
same,BI,PDZ domain NHERF3-4,-0.008
same,BI,PDZ domain NHERF4-1,0.09
same,BI,PDZ domain NHERF4-2,0.132
same,BI,PDZ domain NHERF4-3,0.208
same,BI,PDZ domain NHERF4-4,-0.036
same,BI,PDZ domain NOS1-1,0.002
same,BI,[1],0.146
same,Log(Kd),[1],4.018
same,BI,PDZ domain PARD3-2,-0.023
same,BI,PDZ domain PARD3B-1,-0.096
same,BI,PDZ domain PARD3B-2,0.088
same,BI,PDZ domain PARD3B-3,0.134
same,BI,PDZ domain PARD6A-1,-0.115
same,BI,PDZ domain PARD6G-1,-0.065
same,BI,PDZ domain PCLO-1,-0.006
same,BI,PDZ domain PDLIM1-1,-0.067
same,BI,PDZ domain PDLIM2-1,-0.078
same,BI,PDZ domain PDLIM3-1,0.139
same,BI,PDZ domain PDLIM4-1,0.003
same,BI,PDZ domain PDLIM5-1,-0.025
same,BI,PDZ domain PDLIM7-1,0.039
same,BI,PDZ domain PDZD2-1,-0.006
same,BI,PDZ domain PDZD2-2,0.054
same,BI,PDZ domain PDZD2-3,-0.045
same,BI,PDZ domain PDZD2-4,0.107
same,BI,PDZ domain PDZD2-5,0.195
same,BI,PDZ domain PDZD2-6,-0.066
same,BI,PDZ domain PDZD4-1,0.025
same,BI,PDZ domain PDZD7-1,-0.034
same,BI,PDZ domain PDZD7-2,-0.061
same,BI,PDZ domain PDZD7-3,0.811
same,BI,PDZ domain PDZD8-1,0.038
same,BI,PDZ domain PDZD9-1,0.075
same,BI,PDZ domain PDZD11-1,-0.022
same,BI,PDZ domain PDZRN3-1,0.024
same,BI,PDZ domain PDZRN3-2,0.032
same,BI,PDZ domain PDZRN4-1,-0.022
same,BI,PDZ domain PDZRN4-2,-0.019
same,BI,PDZ domain PICK1-1,0.089
same,BI,PDZ domain PPP1R9A-1,-0.068
same,BI,PDZ domain PPP1R9B-1,-0.064
same,BI,PDZ domain PREX1-1,-0.02
same,BI,PDZ domain PREX1-2,0.087
same,BI,PDZ domain PREX2-1,0.032
same,BI,PDZ domain PREX2-2,-0.046
same,BI,PDZ domain PRX-1,-0.006
same,BI,PDZ domain PSCDBP-1,0.094
same,BI,PDZ domain PSMD9-1,0.022
same,BI,PDZ domain PTPN3-1,0.015
same,BI,PDZ domain PTPN4-1,0.026
same,BI,PDZ domain PTPN13-1,0.009
same,BI,PDZ domain PTPN13-3,-0.036
same,BI,PDZ domain PTPN13-5,0.022
same,BI,PDZ domain RADIL-1,0.092
same,BI,PDZ domain RAPGEF2-1,-0.023
same,BI,PDZ domain RAPGEF6-1,-0.02
same,BI,PDZ domain RGS3-1,0.249
same,BI,PDZ domain RGS12-1,0.04
same,BI,PDZ domain RHPN1-1,0.479
same,BI,PDZ domain RHPN2-1,0.033
same,BI,PDZ domain RIMS1-1,-0.009
same,BI,PDZ domain RIMS2-1,-0.031
same,BI,PDZ domain SCRIB-1,0.173
same,BI,PDZ domain SCRIB-2,-0.031
same,BI,PDZ domain SCRIB-4,-0.007
same,BI,PDZ domain SDCBP2-1,0.022
same,BI,PDZ domain SDCBP2-2,-0.007
same,BI,PDZ domain SDCBP-2,-0.032
same,BI,PDZ domain SHROOM2-1,-0.059
same,BI,PDZ domain SHROOM3-1,-0.047
same,BI,PDZ domain SHROOM4-1,-0.086
same,BI,PDZ domain SIPA1-1,-0.045
same,BI,PDZ domain SIPA1L1-1,0.023
same,BI,PDZ domain SIPA1L2-1,-0.04
same,BI,PDZ domain SIPA1L3-1,-0.026
same,BI,PDZ domain SNTA1-1,0.142
same,BI,PDZ domain SNTB1-1,0.224
same,BI,PDZ domain SNTG1-1,0.14
same,BI,PDZ domain SNTG2-1,0.015
same,number of PDZ domains identified as potential binders (BI>0.20),"holdup, singlicate, threshold BI>0.20",24 PDZ domains
same,maximal BI,"holdup, singlicate, highest BI in the PDZome profile, BI standard error ~0.07",0.81
same,effect on PDZ binding profile (in words),"holdup/FP profile, compared with PTEN_11",markedly stronger compared to the affinities observed for the same PDZ partners in PTEN_11
same,Max BI,maximum over PDZome,0.88
